Read-outs that look alike come from different tables or passages of the source.

Series [1] relates to MeWo cells. The series can be described thus: MTT cell viability assay on 2D MeWo culture. It counts as cell-based, human. The settings on record: for inhibition of MeWo viability / decrease in cell viability: 20 μM; for inhibition of MeWo viability / change of cell viability (in words): 24 h. The protocol: (§1) IC50 values for MeWo cells were calculated with GraphPad Prism software (6.0 for Windows, LLC, San Diego, CA, USA).
(§2) Then, the supernatant was removed and 100 μL of dimethyl sulfoxide (DMSO) was added to solubilize formazan crystals. The absorbance was measured at 490 nm using a microplate reader (Infinite F200 PRO, Tecan Group Ltd., Männedorf, Switzerland) Cell metabolic activity was calculated as percentage compared to the control group (considered as 100%), according to Equation (1):(1) % Cell metabolic activity=Abs of sample−Abs blank/Abs of control−Abs blank×100

Series [2] deals with MeWo cells. The series can be described thus: Time-Lapse Live-Cell Imaging of 2D MeWo culture. It is filed as cell-based, human. The settings on record: 20 μM. The protocol:
MeWo culture was performed using Time-Lapse Live-Cell Imaging System formed by a Bold Line Top Stage Incubator for 35 mm Petri dishes (H301-T UNIT BL; Okolab S.r.l., Pozzuoli, Italy), that allows the acquisition of the same field along the culture time in fixed culture point mapped by the fully automated stage. The incubator has independent control of gas (CO2/O2), humidity and temperature, and ensured an environment with 37 °C of temperature and 5% of CO2 atmosphere. The system allows acquisition in brightfield and fluorescence. All images of different fields within the culture chamber were achieved automatically, using Olympus IX83 time-lapse microscope by motorized stage and CCD monochrome camera (mod. XM10, Olympus, Segrate, Italy), and with all operations under the control of the X-Excellence advanced live-cell imaging software (version 2.0, Olympus Inc., Segrate, Italy). In our case, cell images were captured in brightfield using a 10× objective every 4 h intervals. The related videos reported in Supplementary Materials were generated with windows movie maker software (version 2.0, Microsoft) starting from the acquired frames.

Another series concerns p-ERK 1/2. As to the kind of experiment: Western blot of ERK phosphorylation in MeWo cells. It is filed as cell-based, human. The conditions noted are these: 20 μM. Here is the method:
(§3) Human melanoma cells (MeWo; ATCC®, HTB-65^TM) were grown in 100 mm Petri Dishes at a density of 1.5 × 10^4 cells/cm^2 and treated with 20 μM of AuM1 (5′-15′-30′-1 h) and AgM1 (5′-15′-30′-1 h-24 h). After treatments, cells were harvested and lysed in RIPA buffer (NaCl 150 mM, 1% triton X-100 pH 8.0, 0.5% sodium deoxycholate, 0.1% SDS, 50 mM Tris, pH 8.0), supplemented with protease inhibitors cocktail and phosphatase inhibitors (Merck), 1 h on ice. Lysates were then centrifuged for 30 min at 15,000× g and supernatant were transferred to a new 1.5 mL tube. Protein amount was determined by Bradford assay (Bio-Rad, Hercules, CA, USA) and 15 μg of total protein extracts were separated by SDS–PAGE gels and transferred onto nitrocellulose membranes. […] Immunoreactivity was detected by sequential incubation with appropriate horseradish peroxidase-conjugated secondary antibodies (Merck) for 1 h at room temperature and Pierce ECL detection reagents (Thermo Scientific, Rockford, IL, USA) on an X-ray film. […] The area under the curves, each relative to a band, was determined and the background was subtracted from the calculated values.

Another series has as its system histone H2AX. The series can be described thus: Western blot of histone H2AX phosphorylation in MeWo cells. It counts as cell-based, human. The conditions noted are these: 20 μM. Here is the method:
as §3

Series [3] deals with MeWo cells. As to the kind of experiment: Apoptosis by Annexin V / propidium iodide flow cytometry. It is filed as cell-based, human. The conditions noted are these: 20 μM. The protocol:
Annexin V FITC Apoptosis Detection Kit (Cat. […] Then, 5 μL of Annexin V FITC Conjugate and 5 μL of propidium Iodide PE Solution were added to 100 μL of the cell suspension (1 × 10^6 cells/mL). After incubation for 15 min at room temperature with light protection, 400 μL of Annexin V Binding Solution was added for flow cytometry analysis.

Series [4] deals with MeWo cells. The series can be described thus: Cell cycle analysis by DNA content (propidium iodide) flow cytometry. It is filed as cell-based, human. The conditions noted are these: 48 h. Here is the method: Human melanoma cells (MeWo, HTB-65^TM; ATCC®, Manassas, VA, USA) were grown in 24-well plates at a density of 1 × 10^4 cells/cm^2 and treated with AuM1 (at 1 μM and 5 μM) and AgM1 (at 10 μM and 20 μM) for 24 h and 48 h. After treatments, cells were transferred in 15 mL polypropylene V-bottomed tubes, rinsed twice in ice cold PBS, and stained in freshly prepared PBS buffer containing 1 mg/mL propidium iodide (PI) (Merck Life Science S.r.l., Milan, Italy), 110,000 U/mL RNase A (Merck) and 0.1% Triton X-100 (Merck Life Science S.r.l., Milan, Italy). Cells were incubated 30 min at 4 °C in the dark and analysed with a BD FACSVerse flow cytometer (Becton Dickinson, BD, Franklin Lakes, NJ, USA) counting 1 × 10^4 events per sample. G1, S and G2/M cell cycle phase percentages were analysed by ModFit LT software (version 3.0).

The nature of series [5]: Hydrolytic stability by 1H-NMR. The conditions noted are these: D2O-10% of DMSO-d6; 0 h, 2 h, 4 h, 24 h, 48 h and 72 h. It counts as physicochemical. The source says: 10% of DMSO-d6, following the procedure in ref. [23]. Figures S3–S6 show the 1H-NMR […]
time. These preliminary studies can be reasonably extended to all synthesized complexes because they have a similar structure. Thus, it is possible to affirm th at these complexes are […]
(1 picture or pasted object on this page, not shown here)

The test system of the next series is HaCaT cells. The series can be described thus: MTT selectivity study on HaCaT non-cancerous cell line. It is filed as cell-based, human. The conditions noted are these: 5 μM, 48 h. The protocol: as §1, §2
For a further series, the system named is MeWo 3D culture. As to the kind of experiment: Live/Dead assay on 3D MeWo cultures (spheroids). It is filed as cell-based, human. The conditions noted are these: 3D MeWo culture, 5 μM, 24 h, semi-quantitative. The source says:
High density 3D cultures were obtained using 96-well ultra-low attachment microplates (Corning, Manassas, VA, USA). Briefly, MeWo cells were resuspended at a density of 500.000 cells/mL. […] For the cell viability assay, the average value of 10 3D-systems (n = 3) were considered.
Cell viability of 3D cultures was detected by fluorescence Live/Dead assay after cellular aggregate formation. Calcein AM solution (Cat. no C1359, Sigma-Aldrich) was used to stain live cells, while cell membrane-impermeable Ethidium homodimer I solution (Cat. no E1903, Sigma-Aldrich) for nuclei of dead cells.

A further series is described as follows: Thermal stability. It counts as physicochemical. The conditions noted are these: decompose before melting.
The mark [6] stands for this setting: MeWo, MTT, 24 h of treatment, read-out: IC50 24 h.
[7] abbreviates: MeWo, MTT, 48 h of treatment, read-out: IC50 48 h.
The mark [8] stands for this setting: 5 μM, screening of derivatives, MTT.

`C[n+]1ccn(CC(O)c2ccccc2)[c]1[Ag-][I]` (racemic) [AgL20]: in the series on MeWo cells [1], the “inhibition of MeWo viability” value is “able to inhibit MeWo viability”. Further, the “change of cell viability (in words)” value in the series on MeWo cells [1] (MeWo, 10 μM) is reported as “apparent increase in cell viability”. The “reduction of cell viability” value with MeWo cells [1] (MeWo, 10 μM, 48 h) was “about 10%”. Moreover, the “decrease in cell viability” value with MeWo cells [1] (MeWo, 48 h) is recorded as “more than 50%”. Also, the IC50 in the series with MeWo cells [1] (setting [6]) was roughly 19.4 µM; in the series on MeWo cells [1] (setting [7]) it was 18.3 µM. In addition, the “time of treatment after which cell death was observed” value (shortened to “time of treatment”) in the series with MeWo cells [2] is listed as greater than 96 h.
As for `C[n+]1c(Cl)c(Cl)n(CC(O)c2ccccc2)[c]1[Ag-][I]` (racemic) [AgM1], the “ERK phosphorylation (p-ERK)” value with p-ERK 1/2 was “pronounced and significant decrease”. Moreover, the “inhibition of MeWo viability” value in the series with MeWo cells [1] is “able to inhibit MeWo viability”. Also, the “reduction in cell viability” value with MeWo cells [1] (MeWo, 1 μM, 48 h) came to 30%. In addition, in the series with MeWo cells [1] (MeWo, 10 μM, 48 h), the “reduction of cell viability” value was “about 10%”. In the series with MeWo cells [1] (MeWo, 48 h), the “decrease in cell viability” value is listed as “more than 50%”. The “Minimum Inhibitory Concentration (MIC)” value in the series with MeWo cells [1] (MeWo, 48 h) stood at 1 µM. The IC50 was 15.4 µM in the series on MeWo cells [1] (setting [6]) and 14.8 µM with MeWo cells [1] (setting [7]). For the same compound, the “phosphorylation of histone H2AX” value in the series with histone H2AX (at 5'-30'-1 h) is given as “significantly increase”. The same compound came in with an apoptotic cells with MeWo cells [3] (96 h of treatment) of roughly 6.7%. Besides, the cell cycle progression result in the series on MeWo cells [4] (20 μM) was “G0/G1 phase cell cycle arrest”. Further, the “time of treatment” value in the series with MeWo cells [2] was found to be 96 h.
Turning to `C[n+]1ccn(CC(O)c2ccccc2)[c]1[Au-][Cl]` (racemic) [AuL20], in the series with MeWo cells [1], the “inhibition of MeWo viability” value is recorded as “able to inhibit MeWo viability”. In addition, the “change of cell viability (in words)” value in the series on MeWo cells [1] (MeWo, 10 μM) was “apparent increase in cell viability”. The “reduction of cell viability” value in the series on MeWo cells [1] (MeWo, 10 μM, 48 h) was “about 10%”. The “decrease in cell viability” value in the series on MeWo cells [1] (MeWo, 48 h) is reported as 25%. Also, the IC50 in the series with MeWo cells [1] (setting [6]) was roughly 24.6 µM; in the series with MeWo cells [1] (setting [7]), 31.1 µM. In the series with MeWo cells [2], the “time of treatment” value was greater than 40 h.
For `C[n+]1c(Cl)c(Cl)n(CC(O)c2ccccc2)[c]1[Au-][Cl]` (racemic) [AuM1], the “ERK phosphorylation (p-ERK)” value in the series with p-ERK 1/2 is “pronounced and significant decrease”. Besides, the “hydrolytic stability (1H-NMR spectra over time)” value in [5] is “no changes are observed”. Besides, in the series with MeWo cells [1] (5 μM, 48 h), the MeWo viability came out at 30% and the MeWo viability reduction turned out to be 70%. Also, the “inhibition of MeWo viability” value in the series on MeWo cells [1] is on record as “able to inhibit MeWo viability”. Also, the “decrease in cell viability” value in the series with MeWo cells [1] (MeWo, 48 h) was “more than 50%”. The “reduction of cell viability” value in the series on MeWo cells [1] (MeWo, 48 h, concentration not restated, by context 10 μM) is 95%. Moreover, the IC50 with MeWo cells [1] (setting [6]) turned out to be 5.48 µM. Further, the IC50 in the series with MeWo cells [1] (setting [7]) stood at 3.12 µM. Besides, the “phosphorylation of histone H2AX” value in the series on histone H2AX (already after 5 min (5'-15'-30'-1 h)) is “significant and marked increase”. In the series with HaCaT cells, the HaCaT viability came to 70% and the “selectivity MeWo vs HaCaT (in words)” value is on record as “most selective”. In the series on MeWo 3D culture, the “red signal (dead cells), Live/Dead assay” value was 45%. In addition, the apoptotic cells in the series on MeWo cells [3] (8 h of exposure, control 11.7%) is recorded as 63.8%. Also, the cell cycle progression entry with MeWo cells [4] (5 μM) was “G0/G1 phase cell cycle arrest”. The “time of treatment” value in the series on MeWo cells [2] amounted to 8 h.
Take `Cn1c(Cl)c(Cl)[n+](CC(O)c2ccccc2)[c]1[Ag-][O]C(=O)CNC(=O)OC(C)(C)C` (stereo not drawn) [AgM1Gly]: the “hydrolytic stability (1H-NMR spectra over time)” value in [5] is recorded as “no changes are observed”. The “thermally stable up to temperature” value in the series “Thermal stability” was “around 150 °C”.
For the compound `CC(C)(C)OC(=O)N[C@@H](Cc1ccccc1)C(=O)O.CN1[CH-]N(CC(O)c2ccccc2)C(Cl)=C1Cl.[Au+]` [AuM1Phe], the “hydrolytic stability (1H-NMR spectra over time)” value in series [5] was “no changes are observed”. In the series with MeWo 3D culture, the “red signal (dead cells), Live/Dead assay” value came to 60%.
`CC(C)(C)OC(=O)NCC(=O)[O-].[Ag+]` [GlyAg, Boc-Glycine silver salt]: the MeWo viability reduction result with MeWo cells [1] (setting [8]) is recorded as “up to 80%”.
As to `CC(C)(C)OC(=O)N[C@@H](Cc1ccccc1)C(=O)[O-].[Ag+]` [PheAg, Boc-L-Phenylalanine silver salt], in [5], the “hydrolytic stability (1H-NMR spectra over time)” value is recorded as “no changes are observed”. In addition, the MeWo viability reduction entry with MeWo cells [1] (setting [8]) is “up to 80%”. In addition, the “red signal (dead cells), Live/Dead assay” value in the series with MeWo 3D culture was determined as 50%.
With `N.N.[Cl][Pt][Cl]` [cisplatin, reference compound], the “inhibition of MeWo cultures” value in the series on MeWo cells [1] (even at 20 μM) is given as “not inhibited”.

Source of the values: article PMC10303371, “Activity and Selectivity of Novel Chemical Metallic Complexes with Potential Anticancer Effects on Melanoma Cells” (Molecules, 2023).
